From PubChem BioAssay (NCI)
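These data come from cells grown in 96-well plates and exposed to compound for 48 hours at five concentrations. GI50: concentration for 50% inhibition of growth. Definition used: TGI = concentration required for complete inhibition of growth.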

Columns and labels:
Assay in all cases: NCI anticancer screen, dose series, 48 h
SR leukemia = tested on: SR leukemia
HCT-116 colon = tested on: HCT-116 colon
LOX IMVI melanoma = tested on: LOX IMVI melanoma
MCF7 breast = tested on: MCF7 breast
SNB-19 CNS = tested on: SNB-19 CNS
SN12C renal = tested on: SN12C renal
SK-MEL-5 melanoma = tested on: SK-MEL-5 melanoma
RXF 393 renal = tested on: RXF 393 renal
MOLT-4 leukemia = tested on: MOLT-4 leukemia
K-562 leukemia = tested on: K-562 leukemia
U251 CNS = tested on: U251 CNS
PC-3 prostate = tested on: PC-3 prostate
HS 578T breast = tested on: HS 578T breast
T-47D breast = tested on: T-47D breast
SK-MEL-28 melanoma = tested on: SK-MEL-28 melanoma
SF-539 CNS = tested on: SF-539 CNS
IGROV1 ovarian = tested on: IGROV1 ovarian
UACC-62 melanoma = tested on: UACC-62 melanoma
OVCAR-4 ovarian = tested on: OVCAR-4 ovarian
OVCAR-3 ovarian = tested on: OVCAR-3 ovarian
HCT-15 colon = tested on: HCT-15 colon
CCRF-CEM leukemia = tested on: CCRF-CEM leukemia
HT29 colon = tested on: HT29 colon
NCI/ADR-RES ovarian = tested on: NCI/ADR-RES ovarian
BT-549 breast = tested on: BT-549 breast
OVCAR-8 ovarian = tested on: OVCAR-8 ovarian
A549 NSCLC = tested on: A549 NSCLC
SW-620 colon = tested on: SW-620 colon
M14 melanoma = tested on: M14 melanoma
NCI-H460 lung = tested on: NCI-H460 lung
HOP-92 NSCLC = tested on: HOP-92 NSCLC
UACC-257 melanoma = tested on: UACC-257 melanoma
COLO 205 colon = tested on: COLO 205 colon
NCI-H226 lung = tested on: NCI-H226 lung
TK-10 renal = tested on: TK-10 renal
MALME-3M melanoma = tested on: MALME-3M melanoma
HL-60(TB) leukemia = tested on: HL-60(TB) leukemia
HCC-2998 colon = tested on: HCC-2998 colon
SF-268 CNS = tested on: SF-268 CNS
SF-295 CNS = tested on: SF-295 CNS
EKVX NSCLC = tested on: EKVX NSCLC
KM12 colon = tested on: KM12 colon
SNB-75 CNS = tested on: SNB-75 CNS
A498 renal = tested on: A498 renal
HOP-62 NSCLC = tested on: HOP-62 NSCLC
DU-145 prostate = tested on: DU-145 prostate
MDA-MB-231 breast = tested on: MDA-MB-231 breast
CAKI-1 renal = tested on: CAKI-1 renal
MDA-MB-435 = tested on: MDA-MB-435
UO-31 renal = tested on: UO-31 renal
ACHN renal = tested on: ACHN renal
786-0 renal = tested on: 786-0 renal
SK-OV-3 ovarian = tested on: SK-OV-3 ovarian
OVCAR-5 ovarian = tested on: OVCAR-5 ovarian
SK-MEL-2 melanoma = tested on: SK-MEL-2 melanoma
RPMI-8226 leukemia = tested on: RPMI-8226 leukemia
NCI-H522 lung = tested on: NCI-H522 lung
NCI-H23 lung = tested on: NCI-H23 lung

With O=C(Nc1ccc(-n2ccc3c(NC(=O)c4ccccc4)nccc32)cc1)c1cccc(C(F)(F)F)c1 the GI50 (SR leukemia) was 0.0753 µM, the TGI (SR leukemia) was > 18 µM and the GI50 (HCT-116 colon) was 0.177 µM. For the same compound, the TGI (HCT-116 colon) was 6.92 µM, the GI50 (LOX IMVI melanoma) was 0.182 µM and the TGI (LOX IMVI melanoma) was 5.4 µM. It also gave a GI50 (MCF7 breast) of 0.413 µM, a TGI (MCF7 breast) of 7.94 µM and a GI50 (SNB-19 CNS) of 0.729 µM. The TGI (SNB-19 CNS) was 20.1 µM, the GI50 (SN12C renal) was 1.67 µM and the TGI (SN12C renal) was > 35.6 µM. The GI50 (SK-MEL-5 melanoma) was 0.194 µM, the TGI (SK-MEL-5 melanoma) was 6.65 µM and the GI50 (RXF 393 renal) was 1.02 µM. For the same compound, the TGI (RXF 393 renal) was 5.97 µM, the GI50 (MOLT-4 leukemia) was 0.29 µM and the TGI (MOLT-4 leukemia) was > 25.9 µM. For the same compound, the GI50 (K-562 leukemia) was 0.231 µM, the TGI (K-562 leukemia) was > 23.1 µM and the GI50 (U251 CNS) was 0.158 µM. The TGI (U251 CNS) was 7.09 µM, the GI50 (PC-3 prostate) was 1.29 µM and the TGI (PC-3 prostate) was 27.3 µM. It also gave a GI50 (HS 578T breast) of 1.42 µM, a TGI (HS 578T breast) of 13.1 µM and a GI50 (T-47D breast) of 4.66 µM. It also gave a TGI (T-47D breast) of 30.9 µM, a GI50 (SK-MEL-28 melanoma) of 2.4 µM and a TGI (SK-MEL-28 melanoma) of 11 µM. It also gave a GI50 (SF-539 CNS) of 0.47 µM, a TGI (SF-539 CNS) of 11.5 µM and a GI50 (IGROV1 ovarian) of 1.4 µM. The TGI (IGROV1 ovarian) was > 50 µM, the GI50 (UACC-62 melanoma) was 0.714 µM and the TGI (UACC-62 melanoma) was 8.48 µM. It also gave a GI50 (OVCAR-4 ovarian) of 2.7 µM, a TGI (OVCAR-4 ovarian) of 22.6 µM and a GI50 (OVCAR-3 ovarian) of 1 µM. For the same compound, the TGI (OVCAR-3 ovarian) was 7.89 µM, the GI50 (HCT-15 colon) was 0.0428 µM and the TGI (HCT-15 colon) was 6.99 µM. For the same compound, the GI50 (CCRF-CEM leukemia) was 0.313 µM, the TGI (CCRF-CEM leukemia) was 13.2 µM and the GI50 (HT29 colon) was 0.243 µM. The TGI (HT29 colon) was 4.02 µM, the GI50 (NCI/ADR-RES ovarian) was 0.724 µM and the TGI (NCI/ADR-RES ovarian) was 11.9 µM. The GI50 (BT-549 breast) was 2.03 µM, the TGI (BT-549 breast) was 22.3 µM and the GI50 (OVCAR-8 ovarian) was 0.393 µM. For the same compound, the TGI (OVCAR-8 ovarian) was 10.3 µM, the GI50 (A549 NSCLC) was 0.418 µM and the TGI (A549 NSCLC) was 9.4 µM. The GI50 (SW-620 colon) was 0.381 µM, the TGI (SW-620 colon) was 7.32 µM and the GI50 (M14 melanoma) was 1.38 µM. For the same compound, the TGI (M14 melanoma) was 9.06 µM, the GI50 (NCI-H460 lung) was 0.119 µM and the TGI (NCI-H460 lung) was 5.38 µM. For the same compound, the GI50 (HOP-92 NSCLC) was 1.96 µM, the TGI (HOP-92 NSCLC) was > 50 µM and the GI50 (UACC-257 melanoma) was 2.09 µM. The TGI (UACC-257 melanoma) was > 21.6 µM, the GI50 (COLO 205 colon) was 1.42 µM and the TGI (COLO 205 colon) was 10.3 µM. The GI50 (NCI-H226 lung) was 2.56 µM, the TGI (NCI-H226 lung) was > 50 µM and the GI50 (TK-10 renal) was 1.53 µM. For the same compound, the TGI (TK-10 renal) was 12.6 µM, the GI50 (MALME-3M melanoma) was 2.04 µM and the TGI (MALME-3M melanoma) was 12.2 µM. It also gave a GI50 (HL-60(TB) leukemia) of 0.685 µM, a TGI (HL-60(TB) leukemia) of 15.3 µM and a GI50 (HCC-2998 colon) of 1.71 µM. The TGI (HCC-2998 colon) was 11.6 µM, the GI50 (SF-268 CNS) was 0.473 µM and the TGI (SF-268 CNS) was 25.6 µM. The GI50 (SF-295 CNS) was 0.392 µM, the TGI (SF-295 CNS) was 7.99 µM and the GI50 (EKVX NSCLC) was 4.33 µM. For the same compound, the TGI (EKVX NSCLC) was > 50 µM, the GI50 (KM12 colon) was 0.4 µM and the TGI (KM12 colon) was 7.64 µM. For the same compound, the GI50 (SNB-75 CNS) was 0.707 µM, the TGI (SNB-75 CNS) was 6.59 µM and the GI50 (A498 renal) was 0.905 µM. It also gave a TGI (A498 renal) of 15.6 µM, a GI50 (HOP-62 NSCLC) of 2.02 µM and a TGI (HOP-62 NSCLC) of 14.5 µM. It also gave a GI50 (DU-145 prostate) of 1.64 µM, a TGI (DU-145 prostate) of 9.71 µM and a GI50 (MDA-MB-231 breast) of 2.88 µM. The TGI (MDA-MB-231 breast) was 14.7 µM, the GI50 (CAKI-1 renal) was 0.326 µM and the TGI (CAKI-1 renal) was 7.92 µM. For the same compound, the GI50 (MDA-MB-435) was 0.657 µM, the TGI (MDA-MB-435) was 4.98 µM and the GI50 (UO-31 renal) was 1.83 µM. The TGI (UO-31 renal) was 15.9 µM, the GI50 (ACHN renal) was 0.624 µM and the TGI (ACHN renal) was 14.7 µM. The GI50 (786-0 renal) was 0.728 µM, the TGI (786-0 renal) was 9.14 µM and the GI50 (SK-OV-3 ovarian) was 0.879 µM. The TGI (SK-OV-3 ovarian) was 15.4 µM, the GI50 (OVCAR-5 ovarian) was 3.07 µM and the TGI (OVCAR-5 ovarian) was > 50 µM. It also gave a GI50 (SK-MEL-2 melanoma) of 1.29 µM, a TGI (SK-MEL-2 melanoma) of 7.27 µM and a GI50 (RPMI-8226 leukemia) of 0.614 µM. The TGI (RPMI-8226 leukemia) was 14.2 µM, the GI50 (NCI-H522 lung) was 1.07 µM and the TGI (NCI-H522 lung) was > 13.5 µM. For the same compound, the GI50 (NCI-H23 lung) was 3.88 µM and the TGI (NCI-H23 lung) was > 36.1 µM.

Work on c1ccc2c(c1)Sc1ccccc1N2CC1CN2CCC1CC2 (centres undefined) yielded a TGI (SR leukemia) of 7.83 µM, a TGI (HCT-116 colon) of 12.8 µM and a TGI (LOX IMVI melanoma) of 11.5 µM. For the same compound, the TGI (MCF7 breast) was 11.2 µM, the TGI (SNB-19 CNS) was 22.6 µM and the TGI (SN12C renal) was 23.7 µM. For the same compound, the TGI (SK-MEL-5 melanoma) was 7.63 µM, the TGI (RXF 393 renal) was 10.2 µM and the TGI (MOLT-4 leukemia) was 16.5 µM. It also gave a TGI (K-562 leukemia) of 4.72 µM, a TGI (U251 CNS) of 14.5 µM and a TGI (PC-3 prostate) of 17.2 µM. It also gave a TGI (HS 578T breast) of 26 µM, a TGI (T-47D breast) of 8.65 µM and a TGI (SK-MEL-28 melanoma) of 4.32 µM. The TGI (SF-539 CNS) was 21.8 µM, the TGI (IGROV1 ovarian) was 23.2 µM and the TGI (UACC-62 melanoma) was 10.5 µM. It also gave a TGI (OVCAR-4 ovarian) of 20.8 µM, a TGI (OVCAR-3 ovarian) of 11.9 µM and a TGI (HCT-15 colon) of 19.6 µM. It also gave a TGI (CCRF-CEM leukemia) of 14.3 µM, a TGI (HT29 colon) of 11.2 µM and a TGI (NCI/ADR-RES ovarian) of 24.5 µM. For the same compound, the TGI (BT-549 breast) was 27.8 µM, the TGI (OVCAR-8 ovarian) was 27.2 µM and the TGI (A549 NSCLC) was 22.8 µM. The TGI (SW-620 colon) was 13.5 µM, the TGI (M14 melanoma) was 3.36 µM and the TGI (NCI-H460 lung) was 11.3 µM. It also gave a TGI (HOP-92 NSCLC) of 25.2 µM, a TGI (UACC-257 melanoma) of 3.48 µM and a TGI (COLO 205 colon) of 3.12 µM. It also gave a TGI (NCI-H226 lung) of 30.2 µM, a TGI (TK-10 renal) of 19.3 µM and a TGI (MALME-3M melanoma) of 3.91 µM. For the same compound, the TGI (HL-60(TB) leukemia) was 20.3 µM, the TGI (HCC-2998 colon) was 2.6 µM and the TGI (SF-268 CNS) was 20.9 µM. The TGI (SF-295 CNS) was 29.1 µM, the TGI (EKVX NSCLC) was 24.3 µM and the TGI (KM12 colon) was 17.5 µM. For the same compound, the TGI (SNB-75 CNS) was 9.56 µM, the TGI (A498 renal) was 24.7 µM and the TGI (HOP-62 NSCLC) was 27 µM. For the same compound, the TGI (DU-145 prostate) was 19.4 µM, the TGI (MDA-MB-231 breast) was 15 µM and the TGI (CAKI-1 renal) was 21 µM. For the same compound, the TGI (MDA-MB-435) was 8.7 µM, the TGI (UO-31 renal) was 19.4 µM and the TGI (ACHN renal) was 22.2 µM. It also gave a TGI (786-0 renal) of 19.1 µM, a TGI (SK-OV-3 ovarian) of 26 µM and a TGI (OVCAR-5 ovarian) of 24.5 µM. It also gave a TGI (SK-MEL-2 melanoma) of 9.52 µM, a TGI (RPMI-8226 leukemia) of 9.99 µM and a TGI (NCI-H522 lung) of 16.5 µM. The TGI (NCI-H23 lung) was 26.1 µM.
